According to US11608343B2, “Substituted pyrimido[5,4-d]pyrimidines as HER2 inhibitors” (Boehringer Ingelheim International GmbH, priority 2020, dated 2023):
pIC50: −log10 of the molar value.

How the values were obtained:
Type in all cases: cell-based
HER2 YVMA = target: T1, HER2 YVMA (Homo sapiens, UniProt P04626, INS775YVMA); assay: pHER2 (ERBB2) YVMA assay: phosphorylation of HER2 YVMA at Tyr1221/1222 in HEK cells (AlphaScreen Surefire); details: doxycycline induced, 4 h with compound
T1 construct: expressed in transfected cells; host or cells: human HEK cells, retroviral transduction, doxycycline-inducible expression
Procedure: For the assay, HEK HER2 YVMA cells are seeded in MEM medium with 10% FBS. 4 hours prior to compound addition, HER2 YVMA expression is induced using 1 μg/mL Doxycycline. […] Subsequently, 60.000 cells/well in 60 μL are added. Cells are incubated with compound for 4 h at 37° C. […] The mixture is incubated at a temperature of 20-25° C. with shaking (700 rpm) for 20 min. After centrifugation, 4 μL of the lysate are transferred to Proxiplates. […] Plates are shaken for 1 min (1400 rpm) and incubated for 2 h at a temperature of 20-25° C. in the dark. […] Plates are shaken for 1 min (1400 rpm) and incubated for 2 h at a temperature of 20-25° C. in the dark. Plates are subsequently analyzed using an Envision reader platform. […] IC50 values are computed from these values in the MEGASTAR IC50 application using a 4 parametric logistic model. […] The results of the assay are provided as IC50 values.

EGFR wild type (WT) = target: T2, EGFR wild type (WT) (Homo sapiens, UniProt P00533); assay: pEGFR assay: phosphorylation of EGFR at Tyr1068 in HEK cells expressing EGFR WT (AlphaScreen Surefire); details: 4 h with compound
T2 construct: expressed in transfected cells; host or cells: human HEK cells (ATCC CRL-1573), retroviral transduction
Procedure: This assay quantifies the phosphorylation of EGFR at Tyr1068 and is used to measure the inhibitory effect of compounds on the transgenic EGFR wild type (WT) protein expressed in HEK cells.
Transduced cells are selected using puromycin. p-EGFR Tyr1068 is determined using the AlphaScreen Surefire pEGF Receptor (Tyr1068) Assay (PerkinElmer, TGRERS). For the assay, HEK EGFR WT cells are seeded in MEM medium with 10% FBS. […] Subsequently, 60.000 cells/well in 60 μL are added. Cells are incubated with compound for 4 h at 37° C. […] The mixture is incubated at a temperature of 20-25° C. with shaking (700 rpm) for 20 min. After centrifugation, 4 μL of the lysate are transferred to Proxiplates. […] Plates are shaken for 1 min (1400 rpm) and incubated for 2 h at a temperature of (20-25° C.) in the dark. […] Plates are shaken for 1 min (1400 rpm) and incubated for 2 h at a temperature of (20-25° C.) in the dark. Plates are subsequently analyzed using an Envision reader platform. […] IC50 values are computed from these values in the MEGASTAR IC50 application using a 4 parametric logistic model.
This cellular phospho-EGFR (pEGFR) compound dose-response assay quantifies the phosphorylation of EGFR at Tyr1068 in HEK cells expressing EGFR WT. The results of the assay are provided as IC50 values.

[1] = tested on: NCI-H2170 (HER2 wild type) cells; assay: Tumor cell line proliferation assay, NCI-H2170 (HER2 wild type), CellTiter-Glo; details: Homo sapiens, 72 h, read-out: GI50 NCI H-2170 HER2 wt amp.
Procedure: (§1) For proliferation assays, NCI-H2170 (HER2 wild type), NCI-H2170 HER2 YVMA and EGFR WT dependent A431 cells are used. NCI-H2170 HER2 YVMA or NCI-H2170 cells are seeded into 96-well plates at 750 cells/60 μL in growth media (RPMI ATCC+10% FCS, +Penicillin/Streptomycin). […] Compounds are added by using a HP D3000 Digital Dispenser one day after plating the cells. All treatments are performed in technical triplicates. Treated cells are incubated for 72 h at 37° C. with 5% CO2. CellTiter-Glo® Luminescent Cell Viability Assay (Promega) is performed and chemoluminescence is measured by using the multilabel Plate Reader VICTOR X4. The raw data are imported into and analyzed with the Boehringer Ingelheim proprietary software MegaLab (curve fitting based on the program PRISM, GraphPad Inc.).

[2] = tested on: NCI-H2170 HER2 YVMA cells; assay: Tumor cell line proliferation assay, NCI-H2170 HER2 YVMA, CellTiter-Glo; details: Homo sapiens, 72 h, read-out: GI50 NCI H-2170 HER2 YVMA
From the text: HER2 YVMA Tumor Cell Line Model Generation and Proliferation Assays
Homology-directed genome engineering is employed to insert a 12 nucleotide sequence encoding YVMA into Exon 20 of the genomic HER2 locus in NCI-H2170 cells. […] The DNA template containing the HER2 exon 20 YVMA insertion variant was obtained from GenScript. PCR followed by Sanger sequencing is used to confirm the presence of the 12-nucleotide insertion in HER2 Exon 20 resulting in the YVMA amino acid duplication.
as §1

[3] = tested on: EGFR WT dependent A431 cells; assay: Tumor cell line proliferation assay, EGFR WT dependent A431 cells, CellTiter-Glo; details: Homo sapiens, A-431, 72 h, read-out: GI50 A431 EGFR wt amp.
Procedure: as §1

Ba/F3 cells HER2 WT = assay: Ba/F3 proliferation assay, HER2 WT, CellTiter-Glo; details: Mus musculus, BaF3, 72 h
Procedure: (§2) Ba/F3 Cell Model Generation and Proliferation Assays
(§3) Plasmids containing HER2 mutants and EGFR WT were obtained from GeneScript. To generate EGFR/HER2-dependent Ba/F3 models, Ba/F3 cells are transduced with retroviruses containing vectors that harbor EGFR WT, HER2 WT or HER2 mutants (YVMA). Platinum-E cells (Cell Biolabs) are used for retrovirus packaging. Retrovirus is added to Ba/F3 cells. To ensure infection, 4 μg/mL polybrene is added and cells are spin-infected. Infection efficiency is confirmed by measuring GFP-positive cells using a cell analyzer. Cells with an infection efficiency of 10% to 20% are further cultivated and puromycin selection with 1 μg/mL is initiated. As a control, parental Ba/F3 cells are used to assess the selection status. Selection is considered successful when parental Ba/F3 cells cultures die. To evaluate the transforming potential of HER2 mutations, the growth medium is no longer supplemented with IL-3. Ba/F3 cells harboring the empty vector are used as a control. A switch from IL-3 to EGF is performed for Ba/F3 cells expressing EGFR WT known for its dependency on EGF ligand. Approximately ten days before conducting the experiments, puromycin is left out. For proliferation assays (data in tables 10 and 12), Ba/F3 cells are seeded into 96-well plates at 5×10^3 cells/100 μL in growth media. Compounds are added by using a HP D3000 Digital Dispenser. All treatments are performed in technical triplicates. Treated cells are incubated for 72 h at 37° C. with 5% CO2. A CellTiter-Glo® Luminescent Cell Viability Assay (Promega) is performed and chemoluminescence is measured by using the multilabel Plate Reader VICTOR X4. The raw data are imported into and analyzed with the Boehringer Ingelheim proprietary software MegaLab (curve fitting based on the program PRISM, GraphPad Inc.).

[4] = tested on: Ba/F3 cells HER2 mutants (YVMA); assay: Ba/F3 proliferation assay, HER2 YVMA, CellTiter-Glo; details: Mus musculus, BaF3, 72 h
Procedure: as §2, §3

[5] = tested on: Ba/F3 cells expressing EGFR WT; assay: Ba/F3 proliferation assay, EGFR WT (EGF dependent), CellTiter-Glo; details: Mus musculus, BaF3, EGF instead of IL-3, 72 h, read-out: GI50 BAF3 EGF dep.
Procedure: as §2, §3

T2 sequence (P00533 25-1210): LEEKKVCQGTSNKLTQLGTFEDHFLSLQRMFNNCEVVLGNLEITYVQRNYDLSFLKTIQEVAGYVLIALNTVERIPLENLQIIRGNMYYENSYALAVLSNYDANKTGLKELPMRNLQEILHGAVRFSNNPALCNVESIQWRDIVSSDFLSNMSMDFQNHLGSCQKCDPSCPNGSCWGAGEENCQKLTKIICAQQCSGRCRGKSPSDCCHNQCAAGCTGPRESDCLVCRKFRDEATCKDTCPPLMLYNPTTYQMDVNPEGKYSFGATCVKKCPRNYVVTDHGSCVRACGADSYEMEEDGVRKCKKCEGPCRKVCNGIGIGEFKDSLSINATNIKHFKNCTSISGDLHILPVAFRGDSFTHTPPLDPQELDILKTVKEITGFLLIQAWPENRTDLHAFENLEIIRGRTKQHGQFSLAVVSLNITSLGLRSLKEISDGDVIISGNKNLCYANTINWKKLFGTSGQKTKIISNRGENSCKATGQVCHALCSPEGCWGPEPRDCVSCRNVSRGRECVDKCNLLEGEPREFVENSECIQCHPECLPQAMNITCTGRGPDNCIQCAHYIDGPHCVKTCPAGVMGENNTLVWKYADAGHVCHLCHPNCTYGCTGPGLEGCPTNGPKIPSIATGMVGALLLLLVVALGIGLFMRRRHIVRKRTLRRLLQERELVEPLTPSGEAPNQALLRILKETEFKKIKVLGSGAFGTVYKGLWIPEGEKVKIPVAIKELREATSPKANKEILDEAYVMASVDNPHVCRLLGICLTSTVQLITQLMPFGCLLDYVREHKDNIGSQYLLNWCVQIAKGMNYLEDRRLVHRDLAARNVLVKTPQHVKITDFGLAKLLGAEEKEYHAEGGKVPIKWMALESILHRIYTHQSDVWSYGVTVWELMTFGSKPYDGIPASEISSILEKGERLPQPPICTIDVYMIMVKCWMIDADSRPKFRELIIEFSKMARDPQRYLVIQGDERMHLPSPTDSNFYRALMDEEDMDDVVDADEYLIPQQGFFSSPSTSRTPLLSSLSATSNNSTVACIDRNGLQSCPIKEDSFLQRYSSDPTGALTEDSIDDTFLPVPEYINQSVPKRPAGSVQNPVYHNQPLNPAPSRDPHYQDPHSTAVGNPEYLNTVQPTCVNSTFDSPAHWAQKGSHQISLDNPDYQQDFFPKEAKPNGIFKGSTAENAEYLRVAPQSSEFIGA
T1 sequence (P04626 with tags, fused parts or gaps INS775YVMA): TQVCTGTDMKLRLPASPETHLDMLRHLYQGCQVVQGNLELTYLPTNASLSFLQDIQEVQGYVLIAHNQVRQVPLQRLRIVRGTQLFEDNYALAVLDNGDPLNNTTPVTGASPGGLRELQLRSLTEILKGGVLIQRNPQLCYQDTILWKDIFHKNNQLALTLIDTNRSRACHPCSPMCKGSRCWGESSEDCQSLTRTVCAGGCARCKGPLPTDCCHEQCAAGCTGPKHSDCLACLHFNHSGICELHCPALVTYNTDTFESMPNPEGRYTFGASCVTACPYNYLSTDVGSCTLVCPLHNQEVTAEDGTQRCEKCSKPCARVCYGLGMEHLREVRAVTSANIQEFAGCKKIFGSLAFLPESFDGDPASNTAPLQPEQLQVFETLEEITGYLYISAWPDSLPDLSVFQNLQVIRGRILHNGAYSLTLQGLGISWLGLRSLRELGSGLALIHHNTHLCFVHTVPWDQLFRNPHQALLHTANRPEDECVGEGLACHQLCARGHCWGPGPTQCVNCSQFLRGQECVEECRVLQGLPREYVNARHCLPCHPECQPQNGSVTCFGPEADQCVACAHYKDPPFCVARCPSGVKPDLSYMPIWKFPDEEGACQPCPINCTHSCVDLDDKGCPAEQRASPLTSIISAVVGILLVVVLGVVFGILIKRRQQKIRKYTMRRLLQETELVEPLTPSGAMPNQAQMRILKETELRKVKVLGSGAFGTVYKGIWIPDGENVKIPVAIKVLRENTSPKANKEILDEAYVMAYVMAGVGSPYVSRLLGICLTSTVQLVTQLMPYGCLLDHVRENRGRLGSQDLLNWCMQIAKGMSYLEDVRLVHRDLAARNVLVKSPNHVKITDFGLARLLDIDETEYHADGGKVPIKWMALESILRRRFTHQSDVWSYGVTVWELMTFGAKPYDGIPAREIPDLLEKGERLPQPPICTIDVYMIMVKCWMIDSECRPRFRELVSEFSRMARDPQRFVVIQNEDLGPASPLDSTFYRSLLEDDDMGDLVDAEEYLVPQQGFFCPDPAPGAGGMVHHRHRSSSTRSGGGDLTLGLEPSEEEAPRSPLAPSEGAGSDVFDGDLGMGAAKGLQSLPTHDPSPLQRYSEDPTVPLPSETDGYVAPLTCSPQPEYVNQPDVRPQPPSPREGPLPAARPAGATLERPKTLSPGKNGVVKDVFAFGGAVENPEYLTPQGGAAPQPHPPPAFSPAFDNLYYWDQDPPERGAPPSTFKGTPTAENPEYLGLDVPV

Row | SMILES | pIC50 (HER2 YVMA) | pIC50 (EGFR wild type (WT)) | GI50 [1] | GI50 [2] | GI50 [3] | GI50 (Ba/F3 cells HER2 WT) | GI50 [4] | GI50 [5]
1 | C=CC(=O)NC1CN(c2ncc3ncnc(Nc4ccc(Oc5cnc6c(c5)ncn6C)c(C)c4)c3n2)C1 [Example I-13] | 7.55 | 6.37 | 19 nM | 82 nM | > 5000 nM | 1 nM | 32 nM | > 2000 nM
2 | C#Cc1cc(Nc2ncnc3cnc(N4CC(NC(=O)C=C)C4)nc23)ccc1Oc1ccn2ncnc2c1 [Example I-10] | 7.62 | 6.66 | 12 nM | 126 nM | 1460 nM | 3 nM | 35 nM | 1650 nM
3 | C=CC(=O)NC1CN(c2ncc3ncnc(Nc4ccc(Oc5ccc6c(c5)ncn6C)c(Cl)c4)c3n2)C1 [Example I-08] | 7.24 | 6.47 | 8 nM | 44 nM | 1500 nM | 2 nM | 36 nM | 2300 nM
4 | C=CC(=O)N1CCC(Nc2ncc3ncnc(Nc4ccc(Oc5ccc6c(c5)ncn6C)c(C)c4)c3n2)CC1 [Example I-14] | 7.96 | 7.14 | 10 nM | 37 nM | > 2000 nM | 2 nM | 17 nM | 756 nM
5 | C=CC(=O)NC1CCN(c2ncc3ncnc(Nc4ccc(Oc5ccc6c(c5)ncn6C)c(Cl)c4)c3n2)CC1 [Example I-05] | 8.00 | 6.50 | 8 nM | 55 nM | > 5000 nM | 1 nM | 21 nM | 1880 nM
6 | C#Cc1cc(Nc2ncnc3cnc(N4CCC(NC(=O)C=C)CC4)nc23)ccc1Oc1ccc2c(c1)ncn2C [Example I-02] | 7.47 | 6.20 | 13 nM | 228 nM | > 5000 nM | 1 nM | 37 nM | 3010 nM
7 | C=CC(=O)N1CC(Nc2ncc3ncnc(Nc4ccc(Oc5ccn6ncnc6c5)c(C)c4)c3n2)C1 [Example I-19] | 8.10 | 7.39 | 8 nM | 34 nM | 752 nM | 2 nM | 11 nM | 206 nM
8 | C=CC(=O)N1CCC(Nc2ncc3ncnc(Nc4ccc(Oc5ccn6ncnc6c5)c(C)c4)c3n2)CC1 [Example I-16] | 8.30 | 7.64 | 4 nM | 19 nM | 660 nM | 1 nM | 10 nM | 375 nM
9 | C=CC(=O)NC1(C)CCN(c2ncc3ncnc(Nc4ccc(Oc5ccc6c(c5)ncn6C)c(OC)c4)c3n2)CC1 [Example I-04] | 7.59 | 6.31 | 12 nM | 99 nM | > 5000 nM | 3 nM | 32 nM | > 5000 nM
